Reference: paper doi:10.1101/2022.12.16.520736v1 (biorxiv, 2022)
Like-named read-outs stand apart in the source and are kept apart here.

System: CK2 activity in cell extracts
Conditions: then lysed

CC(C)COC(=O)c1[nH]c2ccc(F)cc2c1-c1cn(CC2CCN(CCNS(=O)(=O)c3ccc(CC(C)C)cc3)CC2)nn1 [AB668]
IC50 (786-O cells treated with the inhibitor): 340 ± 70 nM | IC50 (HEK293 cells treated with the inhibitor): 600 ± 110 nM
